# Measured values reported in patent US10273453B2, “Method for stem cell differentiation in vivo by delivery of morphogenes with mesoporous silica and corresponding pharmaceutical active ingredients” (Nanologica AB, priority 2010, dated 2019).
# Test system: bNCSCs
# Assay: in vitro differentiation assay of bNCSCs
# Assay type: cell-based, mouse
# Settings: bNCSC cultures
# Method: bNCSCs were isolated in a semiclonal fashion from EGFP embryos on embryonic day (E)11, as described previously (Hjerling-Leffler J, Marmigére F, Heglind M, et al. The boundary cap: a source of neural crest stem cells that generate multiple sensory neuron subtypes. Development 2005; 132:2623-32). Briefly, the DRGs along with boundary caps were mechanically separated from the isolated spinal cord and mechano-enzymatically dissociated using Collagenase/Dispase (1 mg/ml) and DNase (0.5 mg/ml) for 30 minutes at room temperature. Cells were plated at 0.5-1×10^5 cells/cm^2 in N2 medium containing B27 (Gibco, Grand Island, N.Y., www.invitrogen.com) as well as EGF and basic fibroblast growth factor (R&D Systems, Minneapolis, www.rndsystems.com; 20 ng/ml, respectively). […]
# The AMS were added to the cultures and the time-window for their presence before dissolving in the culture medium was established. We also analyzed their contact with the stem cells. […] After staining 10 photographs were taken from each slide and the ratios of neurons and glial cells were calculated in all types of experiments. We also calculated the neurite length per cell as a measure of the level of neuronal differentiation (Kozlova E N. Differentiation and migration of astrocytes in the spinal cord following dorsal root injury in the adult rat. Eur J Neurosci 2003; 17:782-90).
structure (smiles),measurement,value
"CC1=C(/C=C/C(C)=C/C=C/C(C)=C/C(=O)O)C(C)(C)CCC1 [RA, retinoic acid]","differentiation of neurons based on neurite lengths, increase compared to non-treated neurospheres",up to 37%
same,"neuron/glia ratio, increase compared to neurospheres-alone",3.4 times
